Read-outs that look alike come from different tables or passages of the source.
How the values were obtained:
Type in all cases: in vivo
[1] = system: Alopecurus myosuroides (ALOMY); assay: Pre-emergence herbicidal action against ALOMY; conditions: scored visually after about 3 weeks, 100% = plants have died
How it was run: (§1)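 Herbicide applied to soil before seedling emergence, at 600 l/ha spray volume with 0.5% additive and rates up to 320 g/ha. Evaluation: visual percentage effect, about 3 weeks later, greenhouse-grown pots compared with untreated ones.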

[2] = system: Amaranthus retroflexus (AMARE); assay: Pre-emergence herbicidal action against AMARE; conditions: 320 g/ha, visual scoring after about 3 weeks vs untreated controls
How it was run: as §1

Avena fatua (AVEFA) [3] = assay: Pre-emergence herbicidal action against AVEFA; conditions: 320 g/ha, visual scoring after about 3 weeks vs untreated controls
How it was run: as §1

[4] = system: Digitaria sanguinalis (DIGSA); assay: Pre-emergence herbicidal action against DIGSA
How it was run: as §1

[5] = system: Echinochloa crus-galli (ECHCG); assay: Pre-emergence herbicidal action against ECHCG; conditions: dosage 320 g/ha
How it was run: as §1

Lolium rigidum (LOLRI) [6] = assay: Pre-emergence herbicidal action against LOLRI; conditions: dosage 320 g/ha
How it was run: as §1

[7] = system: Matricaria inodora (MATIN); assay: Pre-emergence herbicidal action against MATIN; conditions: dosage 320 g/ha
How it was run: as §1

[8] = system: Polygonum convolvulus (POLCO); assay: Pre-emergence herbicidal action against POLCO
How it was run: as §1

Setaria viridis (SETVI) [9] = assay: Pre-emergence herbicidal action against SETVI
How it was run: as §1

[10] = system: Verconica persica (VERPE); assay: Pre-emergence herbicidal action against VERPE; conditions: dosage 320 g/ha
How it was run: as §1

Viola tricolor (VIOTR) [11] = assay: Pre-emergence herbicidal action against VIOTR; conditions: 320 g/ha, Viola tricolor
How it was run: as §1

Brassica napus (BRSNW) = conditions: crop plant compatibility, in comparison to untreated controls
How it was run: (§2)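 Scoring: visual, % of untreated control, about 3 weeks after a pre-emergence application to the soil surface. Application used WP or EC formulations diluted in water with 0.5% additive at 600 l/ha; dosage levels are marked by suffixes a, b and c.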

Glycine max (GLXMA) = conditions: crop plant compatibility
How it was run: as §2

Oryza sativa (ORYSA) [12] = conditions: crop plant compatibility; for Pre-emergence action against ORYSA in %: 80 g/ha, in comparison to untreated controls
How it was run: as §2

[13] = system: Triticum aestivum (TRZAS); conditions: crop plant compatibility; for Pre-emergence action against TRZAS in %: in comparison to untreated controls
How it was run: as §2

Zea mays (ZEAMX) [14] = conditions: crop plant compatibility; for Pre-emergence action against ZEAMX in %: 80 g/ha, in comparison to untreated controls
How it was run: as §2

[15] = system: Alopecurus myosuroides (ALOMY); assay: Post-emergence herbicidal action against ALOMY; conditions: visual rating about 3 weeks after treatment vs untreated controls (100% = plants have died, 0% = like control plants)
How it was run: (§3)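 Doses of 320 g/ha or lower, suffixes a, b and c marking different dosages, were applied post-emergence at the one-leaf stage in 600 l/ha water with 0.5% additive. Damage was assessed visually after about 3 weeks in the greenhouse.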

Avena fatua (AVEFA) [16] = assay: Post-emergence herbicidal action against AVEFA; conditions: visual rating about 3 weeks after treatment
How it was run: as §3

[17] = system: Digitaria sanguinalis (DIGSA); assay: Post-emergence herbicidal action against DIGSA; conditions: visual rating about 3 weeks after treatment
How it was run: as §3

[18] = system: Echinochloa crus-galli (ECHCG); assay: Post-emergence herbicidal action against ECHCG; conditions: dosage 320 g/ha
How it was run: as §3

Lolium rigidum (LOLRI) [19] = assay: Post-emergence herbicidal action against LOLRI; conditions: dosage 320 g/ha
How it was run: as §3

[20] = system: Pharbitis purpurea (PHBPU); assay: Post-emergence herbicidal action against PHBPU
How it was run: as §3

Setaria viridis (SETVI) [21] = assay: Post-emergence herbicidal action against SETVI
How it was run: as §3

[22] = system: Verconica persica (VERPE); assay: Post-emergence herbicidal action against VERPE; conditions: 320 g/ha, VERPE
How it was run: as §3

Viola tricolor (VIOTR) [23] = assay: Post-emergence herbicidal action against VIOTR; conditions: 320 g/ha
How it was run: as §3

Oryza sativa (ORYSA) [24] = conditions: crop plant compatibility
How it was run: (§4)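 Visual rating (% effect vs. untreated plants; 100% = plant death) made about 3 weeks after treatment. Plants had been sprayed at one-leaf stage, 2–3 weeks post-sowing, with aqueous WP/EC preparations containing 0.5% additive, 600 l/ha water volume; a, b, c mark dose levels.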

Zea mays (ZEAMX) [25] = system: Zea mays (ZEAMX)
How it was run: as §4

[26] = system: Abutilon theophrasti (ABUTH); assay: Post-emergence herbicidal action against ABUTH; conditions: 320 g/ha, visual rating about 3 weeks after treatment vs untreated controls (100% = plants have died, 0% = like control plants)
How it was run: as §3

[27] = system: Polygonum convolvulus (POLCO); assay: Post-emergence herbicidal action against POLCO
How it was run: as §3

[28] = system: Triticum aestivum (TRZAS); conditions: crop plant compatibility, 80 g/ha, effect vs untreated controls
How it was run: as §4

[29] = 20 g/ha, effect vs untreated controls
[30] = 80 g/ha, effect in comparison to untreated controls

Structure (SMILES): COC(=O)[C@@H](C)Oc1nn(-c2ccc(F)cn2)c(-c2ccc(F)nc2)c1Br [Example I-11]
- Pre-emergence action against ALOMY ([1]; 80 g/ha): 90%
- Pre-emergence action against ALOMY ([1]; 320 g/ha): 100%
- Pre-emergence action against AMARE in % [2]: 100%
- Pre-emergence action against AVEFA in % (Avena fatua (AVEFA) [3]): 90%
- Pre-emergence action against DIGSA in % ([4]; 80 g/ha, visual scoring after about 3 weeks vs untreated controls): 100%
- Pre-emergence action against DIGSA in % ([4]; dosage 320 g/ha): 100%
- Pre-emergence action against ECHCG in % [5]: 80%
- Pre-emergence action against LOLRI in % (Lolium rigidum (LOLRI) [6]): 100%
- Pre-emergence action against MATIN in % [7]: 90%
- Pre-emergence action against POLCO in % ([8]; dosage 80 g/ha): 90%
- Pre-emergence action against POLCO in % ([8]; dosage 320 g/ha): 90%
- Pre-emergence action against SETVI in % (Setaria viridis (SETVI) [9]; dosage 80 g/ha): 90%
- Pre-emergence action against SETVI in % (Setaria viridis (SETVI) [9]; dosage 320 g/ha): 100%
- Pre-emergence action against VERPE in % [10]: 90%
- Pre-emergence action against VIOTR in % (Viola tricolor (VIOTR) [11]): 100%
- Pre-emergence action against BRSNW in % (Brassica napus (BRSNW); 20 g/ha): 10%
- Pre-emergence action against BRSNW in % (Brassica napus (BRSNW); 80 g/ha): 20%
- Pre-emergence action against GLXMA (Glycine max (GLXMA); [29]): 10%
- Pre-emergence action against ORYSA (Oryza sativa (ORYSA) [12]; [29]): 0%
- Pre-emergence action against ORYSA in % (Oryza sativa (ORYSA) [12]): 20%
- Pre-emergence action against TRZAS [13, 29]: 0%
- Pre-emergence action against ZEAMX (Zea mays (ZEAMX) [14]; [29]): 10%
- Pre-emergence action against ZEAMX in % (Zea mays (ZEAMX) [14]): 10%
- Post-emergence action against ALOMY in % ([15]; 80 g/ha): 90%
- Post-emergence action against ALOMY in % ([15]; 320 g/ha): 90%
- Post-emergence action against AVEFA in % (Avena fatua (AVEFA) [16]; 80 g/ha): 80%
- Post-emergence action against AVEFA in % (Avena fatua (AVEFA) [16]; 320 g/ha): 90%
- Post-emergence action against DIGSA in % ([17]; 80 g/ha): 90%
- Post-emergence action against DIGSA in % ([17]; 320 g/ha): 90%
- Post-emergence action against ECHCG in % [18]: 80%
- Post-emergence action against LOLRI in % (Lolium rigidum (LOLRI) [19]): 80%
- Post-emergence action against PHBPU in % ([20]; dosage 320 g/ha): 90%
- Post-emergence action against SETVI in % (Setaria viridis (SETVI) [21]; dosage 80 g/ha): 80%
- Post-emergence action against SETVI in % (Setaria viridis (SETVI) [21]; dosage 320 g/ha): 90%
- Post-emergence action against VERPE in % [22]: 80%
- Post-emergence action against VIOTR in % (Viola tricolor (VIOTR) [23]): 80%
- Post-emergence action against ORYSA in % (Oryza sativa (ORYSA) [24]; [29]): 0%
- Post-emergence action against ORYSA in % (Oryza sativa (ORYSA) [24]; [30]): 0%
- Post-emergence action against ORYSA in % (Oryza sativa (ORYSA) [24]; 320 g/ha, effect in comparison to untreated controls): 10%
- Post-emergence action against ZEAMX in % (crop plant compatibility) (Zea mays (ZEAMX) [25]; 20 g/ha, ZEAMX, effect in comparison to untreated controls): 10%

Structure (SMILES): CCOC(=O)COc1nn(-c2cccc(C)n2)c(-c2ccc(F)nc2)c1Br [Example I-312]
- Pre-emergence action against AMARE in % [2]: 90%
- Pre-emergence action against MATIN in % [7]: 90%
- Pre-emergence action against SETVI in % (Setaria viridis (SETVI) [9]; dosage 320 g/ha): 90%
- Pre-emergence action against BRSNW in % (Brassica napus (BRSNW); 80 g/ha): 20%
- Pre-emergence action against GLXMA in % (Glycine max (GLXMA); pre-emergence, 80 g/ha, in comparison to untreated controls): 20%
- Pre-emergence action against ORYSA in % (Oryza sativa (ORYSA) [12]): 20%
- Pre-emergence action against TRZAS in % ([13]; 80 g/ha): 10%
- Pre-emergence action against TRZAS in % ([13]; 320 g/ha): 20%
- Pre-emergence action against ZEAMX in % (Zea mays (ZEAMX) [14]): 20%
- Post-emergence action against ABUTH in % [26]: 80%
- Post-emergence action against ALOMY in % ([15]; 320 g/ha): 90%
- Post-emergence action against ECHCG in % [18]: 90%
- Post-emergence action against LOLRI in % (Lolium rigidum (LOLRI) [19]): 90%
- Post-emergence action against PHBPU in % ([20]; dosage 80 g/ha): 80%
- Post-emergence action against PHBPU in % ([20]; dosage 320 g/ha): 90%
- Post-emergence action against POLCO in % ([27]; dosage 80 g/ha): 80%
- Post-emergence action against POLCO in % ([27]; dosage 320 g/ha): 80%
- Post-emergence action against SETVI in % (Setaria viridis (SETVI) [21]; dosage 320 g/ha): 80%
- Post-emergence action against VERPE in % [22]: 80%
- Post-emergence action against ORYSA in % (Oryza sativa (ORYSA) [24]; [30]): 10%
- Post-emergence action against TRZAS in % [28]: 20%
- Post-emergence action against ZEAMX in % (Zea mays (ZEAMX) [25]; crop plant compatibility, 80 g/ha, effect vs untreated controls): 10%

— US20240041042A1, “1-(PYRIDYL)-5-AZINYLPYRAZOLE DERIVATIVES, AND THEIR USE FOR CONTROL OF UNDESIRED PLANT GROWTH” (Bayer Aktiengesellschaft, priority 2020, published 2024)
